# Laboratory results as given in PubChem BioAssay AID1745844 (Carcinogenic Potency Database (CPDB), 2022).
# Values joined by “and” are separate entries in the source; they are usually repeats but may differ in a detail not shown here. Equal values may be shown once.
# Test system: rodent lifetime carcinogenesis bioassay, tumor incidence TD50
# Assay: chronic cancer bioassays in animals – CPDB, compiled studies (AID 1745844)
# Details: rat, inhaled
compound,measurement,setting,value
C=CCl,TD50,"strain Sprague-Dawley, males, site: extrahepatic tissue, lesion: angiosarcoma, dosed 25 weeks, study length 115 weeks",468 mg/kg/day
same,TD50,"strain Sprague-Dawley, males, site: extrahepatic tissue, lesion: angiosarcoma, dosed 52 weeks, study length 123 weeks",63 mg/kg/day
same,TD50,"strain Sprague-Dawley, males, site: extrahepatic tissue, lesion: angiosarcoma, dosed 52 weeks, study length 131 weeks",14900 mg/kg/day
same,TD50,"strain Sprague-Dawley, males, site: extrahepatic tissue, lesion: angiosarcoma, dosed 52 weeks, study length 139 weeks",11.7 mg/kg/day
same,TD50,"strain Sprague-Dawley, males, site: kidney, lesion: nephroblastoma, dosed 25 weeks, study length 139 weeks",1940 mg/kg/day
same,TD50,"strain Sprague-Dawley, males, site: kidney, lesion: nephroblastoma, dosed 52 weeks, study length 123 weeks",37.8 mg/kg/day
same,TD50,"strain Sprague-Dawley, males, site: kidney, lesion: nephroblastoma, dosed 52 weeks, study length 131 weeks",2960 mg/kg/day
same,TD50,"strain Sprague-Dawley, males, site: kidney, lesion: nephroblastoma, dosed 52 weeks, study length 139 weeks",28.9 mg/kg/day
same,TD50,"strain Sprague-Dawley, males, site: liver, lesion: angioma, dosed 25 weeks, study length 115 weeks",580 mg/kg/day
same,TD50,"strain Sprague-Dawley, males, site: liver, lesion: angioma, dosed 25 weeks, study length 139 weeks",1030 mg/kg/day
same,TD50,"strain Sprague-Dawley, males, site: liver, lesion: angioma, dosed 52 weeks, study length 123 weeks",106 mg/kg/day and 54.3 mg/kg/day
same,TD50,"strain Sprague-Dawley, males, site: liver, lesion: angiosarcoma, dosed 25 weeks, study length 115 weeks",871 mg/kg/day
same,TD50,"strain Sprague-Dawley, males, site: liver, lesion: angiosarcoma, dosed 52 weeks, study length 123 weeks",76.7 mg/kg/day and 62.4 mg/kg/day
same,TD50,"strain Sprague-Dawley, males, site: liver, lesion: angiosarcoma, dosed 52 weeks, study length 130 weeks",90 mg/kg/day
same,TD50,"strain Sprague-Dawley, males, site: liver, lesion: angiosarcoma, dosed 52 weeks, study length 131 weeks",875 mg/kg/day
same,TD50,"strain Sprague-Dawley, males, site: liver, lesion: angiosarcoma, dosed 52 weeks, study length 139 weeks",75.8 mg/kg/day
same,TD50,"strain Sprague-Dawley, males, site: liver, lesion: hepatocellular carcinoma, dosed 52 weeks, study length 130 weeks",40.8 mg/kg/day
same,TD50,"strain Sprague-Dawley, males, site: liver, lesion: hepatoma, dosed 52 weeks, study length 123 weeks",152 mg/kg/day
same,TD50,"strain Sprague-Dawley, males, site: liver, lesion: hepatoma, dosed 52 weeks, study length 131 weeks",13400 mg/kg/day
same,TD50,"strain Sprague-Dawley, males, site: liver, lesion: several types, types named in the paper, dosed 52 weeks, study length 130 weeks",294 mg/kg/day
same,TD50,"strain Sprague-Dawley, males, site: pituitary gland, lesion: one or several types, types not named, dosed 52 weeks, study length 130 weeks",138 mg/kg/day
same,TD50,"strain Wistar, females, site: Zymbal's gland, lesion: squamous-cell carcinoma, dosed 52 weeks, study length 52 weeks",857 mg/kg/day
same,TD50,"strain Wistar, females, site: liver, lesion: angiosarcoma, dosed 52 weeks, study length 52 weeks",209 mg/kg/day
same,TD50,"strain Wistar, females, site: liver, lesion: hepatocellular carcinoma, dosed 52 weeks, study length 52 weeks",1810 mg/kg/day
same,TD50,"strain Wistar, females, site: liver, lesion: neoplastic nodule, dosed 52 weeks, study length 52 weeks",1810 mg/kg/day
same,TD50,"strain Wistar, females, site: lung, lesion: papillary adenoma, dosed 52 weeks, study length 52 weeks",1810 mg/kg/day
same,TD50,"strain Wistar, females, site: nasal cavity, lesion: olfactory epithelial carcinoma, dosed 52 weeks, study length 52 weeks",276 mg/kg/day
same,TD50,"strain Wistar, males, site: Zymbal's gland, lesion: carcinoma, dosed 52 weeks, study length 125 weeks",3540 mg/kg/day
same,TD50,"strain Wistar, males, site: Zymbal's gland, lesion: squamous-cell carcinoma, dosed 52 weeks, study length 52 weeks",330 mg/kg/day
same,TD50,"strain Wistar, males, site: any site (literature study), lesion: several types, types named in the paper, dosed 52 weeks, study length 78 weeks",5.44 mg/kg/day
same,TD50,"strain Wistar, males, site: any site (literature study), lesion: several types, types named in the paper, dosed 52 weeks, study length 125 weeks",1130 mg/kg/day
same,TD50,"strain Wistar, males, site: brain, lesion: neuroblastoma, dosed 52 weeks, study length 125 weeks",4140 mg/kg/day
same,TD50,"strain Wistar, males, site: brain, lesion: one or several types, types not named, dosed 52 weeks, study length 78 weeks",5820 mg/kg/day
same,TD50,"strain Wistar, males, site: extrahepatic tissue, lesion: angioma, dosed 52 weeks, study length 125 weeks",72700 mg/kg/day
same,TD50,"strain Wistar, males, site: extrahepatic tissue, lesion: angioma, dosed 52 weeks, study length 127 weeks",0.37 mg/kg/day
same,TD50,"strain Wistar, males, site: extrahepatic tissue, lesion: angiosarcoma, dosed 52 weeks, study length 125 weeks",8490 mg/kg/day
same,TD50,"strain Wistar, males, site: extrahepatic tissue, lesion: angiosarcoma, dosed 52 weeks, study length 127 weeks",1.05 mg/kg/day
same,TD50,"strain Wistar, males, site: kidney, lesion: nephroblastoma, dosed 52 weeks, study length 125 weeks",4510 mg/kg/day
same,TD50,"strain Wistar, males, site: liver, lesion: angioma, dosed 52 weeks, study length 125 weeks",3620 mg/kg/day
same,TD50,"strain Wistar, males, site: liver, lesion: angioma, dosed 52 weeks, study length 127 weeks",0.654 mg/kg/day
same,TD50,"strain Wistar, males, site: liver, lesion: angiosarcoma, dosed 52 weeks, study length 52 weeks",330 mg/kg/day
same,TD50,"strain Wistar, males, site: liver, lesion: angiosarcoma, dosed 52 weeks, study length 78 weeks",10.2 mg/kg/day
same,TD50,"strain Wistar, males, site: liver, lesion: angiosarcoma, dosed 52 weeks, study length 125 weeks",518 mg/kg/day
same,TD50,"strain Wistar, males, site: liver, lesion: hepatocellular carcinoma, dosed 52 weeks, study length 52 weeks",1140 mg/kg/day
same,TD50,"strain Wistar, males, site: liver, lesion: hepatoma, dosed 52 weeks, study length 125 weeks",4860 mg/kg/day
same,TD50,"strain Wistar, males, site: liver, lesion: hepatoma, dosed 52 weeks, study length 127 weeks",0.728 mg/kg/day
same,TD50,"strain Wistar, males, site: lung, lesion: angiosarcoma, dosed 52 weeks, study length 78 weeks",193 mg/kg/day
same,TD50,"strain Wistar, males, site: lung, lesion: one or several types, types not named, dosed 52 weeks, study length 78 weeks",867 mg/kg/day
same,TD50,"strain Wistar, males, site: nasal cavity, lesion: olfactory epithelial carcinoma, dosed 52 weeks, study length 52 weeks",533 mg/kg/day
same,carcinogen call,"strain Wistar, males, site: nose, lesion: one or several types, types not named, dosed 52 weeks, study length 78 weeks",positive
same,TD50,"strain Wistar, males, site: skin, lesion: one or several types, types not named, dosed 52 weeks, study length 78 weeks",5820 mg/kg/day
same,carcinogen call,"strain Wistar, males, site: testis, lesion: one or several types, types not named, dosed 52 weeks, study length 78 weeks",positive
